Values of other authors as cited in patent publication US20210023041A1, “FORMULATIONS AND COMPOSITIONS OF DOCETAXEL” (Zhuhai Beihai Biotech Co., Ltd., priority 2018, published 2021).

Question: Which results are given for `CC(=O)O[C@@]12CO[C@@H]1C[C@H](O)[C@@]1(C)C(=O)[C@H](O)C3=C(C)[C@@H](OC(=O)[C@H](O)[C@@H](NC(=O)OC(C)(C)C)c4ccccc4)C[C@@](O)([C@@H](OC(=O)c4ccccc4)[C@H]21)C3(C)C` [Docetaxel]?
Answer: potency in inhibiting microtubule depolymerization relative to paclitaxel (microtubule): twice as potent as paclitaxel; solubility in water: practically insoluble in water; in vitro binding to plasma proteins (plasma proteins; in three cancer patients): approximately 97%; protein bound (plasma proteins; in vitro studies, mainly to α1-acid glycoprotein, albumin, and lipoproteins): about 94%
